From US7816393B2, “Isoindoline compounds and methods of their use” (Celgene Corporation, priority 2008, dated 2010) come the findings set out here.

Take `NC(=O)C(CCC(=O)O)N1Cc2c(N)cccc2C1=O` (stereo not shown) [Example 5.2, 4-(4-Amino-1-oxo-1,3-dihydro-isoindol-2-yl)-4-carbamoyl-butyric acid]: the melting point fell in the range of 334 to 336 °C.
